Measurements as given in patent US7071210B2, “CETP inhibitors in combination with antihypertensive agents and uses thereof” (Pfizer Inc., priority 2002, dated 2006).

Experiment: Aqueous solubility
Format: physicochemical
Settings: aqueous environments

CCOC(=O)N1c2ccc(C(F)(F)F)cc2[C@@H](N(Cc2cc(C(F)(F)F)cc(C(F)(F)F)c2)C(=O)OC)C[C@H]1CC [torceptrapib, [2R,4S]-4-[(3,5-bis-trifluoromethyl-benzyl)-methoxycarbonyl-amino]-2-ethyl-6-trifluoromethyl-3,4-dihydro-2H-quinoline-1-carboxylic acid ethyl ester]
solubility: < 0.04 µg/mL
